What is called IC50 is the concentration needed to halve the response being measured.

The text below walks through data of BindingDB's records for PubMed 35247754 (China Pharmaceutical University, 2022).

In assay [1] the target is T1, Sentrin-specific protease 1 (Homo sapiens, UniProt Q9P0U3).
T1 sequence (Q9P0U3 whole entry): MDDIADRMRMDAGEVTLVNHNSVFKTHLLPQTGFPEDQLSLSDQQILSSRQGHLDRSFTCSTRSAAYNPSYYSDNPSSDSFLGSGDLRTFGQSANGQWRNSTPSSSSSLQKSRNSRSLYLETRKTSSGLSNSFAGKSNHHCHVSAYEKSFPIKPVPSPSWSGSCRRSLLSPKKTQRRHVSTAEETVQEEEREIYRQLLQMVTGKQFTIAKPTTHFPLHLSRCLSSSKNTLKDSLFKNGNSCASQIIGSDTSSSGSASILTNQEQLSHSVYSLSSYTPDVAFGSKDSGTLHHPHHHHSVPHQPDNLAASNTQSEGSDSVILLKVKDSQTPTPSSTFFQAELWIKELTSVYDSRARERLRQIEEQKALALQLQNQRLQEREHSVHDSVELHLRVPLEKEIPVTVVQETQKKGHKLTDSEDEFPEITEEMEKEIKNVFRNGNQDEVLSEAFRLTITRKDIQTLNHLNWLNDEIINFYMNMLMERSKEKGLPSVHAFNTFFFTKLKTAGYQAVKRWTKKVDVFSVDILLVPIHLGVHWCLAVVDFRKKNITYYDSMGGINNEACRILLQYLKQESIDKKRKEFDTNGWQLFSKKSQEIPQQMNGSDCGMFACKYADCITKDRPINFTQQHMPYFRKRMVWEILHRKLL
Briefly: Inhibition of human SENP1 using AMC-tagged SUMO1 as substrate incubated for 10 mins by fluorescence based analysis.

Assay [2] has as its target T2, Sentrin-specific protease 6 (Homo sapiens, UniProt Q9GZR1).
T2 sequence (Q9GZR1 whole entry): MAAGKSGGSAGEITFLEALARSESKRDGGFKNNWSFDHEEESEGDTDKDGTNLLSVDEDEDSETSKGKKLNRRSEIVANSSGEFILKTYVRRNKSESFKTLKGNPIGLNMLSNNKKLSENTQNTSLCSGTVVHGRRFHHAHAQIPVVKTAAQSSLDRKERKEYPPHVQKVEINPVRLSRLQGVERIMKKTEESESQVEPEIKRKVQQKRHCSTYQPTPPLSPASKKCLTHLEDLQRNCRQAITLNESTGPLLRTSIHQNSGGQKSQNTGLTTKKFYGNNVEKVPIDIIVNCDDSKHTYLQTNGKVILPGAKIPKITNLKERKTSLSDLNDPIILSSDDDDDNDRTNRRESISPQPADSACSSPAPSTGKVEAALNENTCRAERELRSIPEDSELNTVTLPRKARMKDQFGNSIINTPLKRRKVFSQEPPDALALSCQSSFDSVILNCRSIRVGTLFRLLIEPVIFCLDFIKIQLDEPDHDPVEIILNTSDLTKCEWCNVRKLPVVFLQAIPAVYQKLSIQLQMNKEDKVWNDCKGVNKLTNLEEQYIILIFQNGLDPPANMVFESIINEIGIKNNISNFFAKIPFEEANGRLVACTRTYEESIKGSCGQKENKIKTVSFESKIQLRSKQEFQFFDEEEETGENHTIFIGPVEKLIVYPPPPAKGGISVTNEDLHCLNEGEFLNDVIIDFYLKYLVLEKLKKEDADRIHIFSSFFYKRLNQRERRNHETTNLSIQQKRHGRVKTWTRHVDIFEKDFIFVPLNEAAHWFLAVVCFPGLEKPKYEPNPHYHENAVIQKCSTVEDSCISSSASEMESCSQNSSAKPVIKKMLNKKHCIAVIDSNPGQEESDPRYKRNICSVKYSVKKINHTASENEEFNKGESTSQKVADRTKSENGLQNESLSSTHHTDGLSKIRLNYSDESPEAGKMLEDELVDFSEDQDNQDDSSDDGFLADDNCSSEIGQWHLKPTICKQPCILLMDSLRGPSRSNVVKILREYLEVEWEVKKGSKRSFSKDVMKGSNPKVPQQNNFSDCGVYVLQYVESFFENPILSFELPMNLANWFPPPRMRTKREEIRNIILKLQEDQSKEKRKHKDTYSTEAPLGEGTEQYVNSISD
In words: Inhibition of human SENP6 using AMC-tagged SUMO1 as substrate incubated for 10 mins by fluorescence based analysis.

The target of assay [3] is T3, Sentrin-specific protease 2 (Homo sapiens, UniProt Q9HC62).
T3 sequence (Q9HC62 whole entry): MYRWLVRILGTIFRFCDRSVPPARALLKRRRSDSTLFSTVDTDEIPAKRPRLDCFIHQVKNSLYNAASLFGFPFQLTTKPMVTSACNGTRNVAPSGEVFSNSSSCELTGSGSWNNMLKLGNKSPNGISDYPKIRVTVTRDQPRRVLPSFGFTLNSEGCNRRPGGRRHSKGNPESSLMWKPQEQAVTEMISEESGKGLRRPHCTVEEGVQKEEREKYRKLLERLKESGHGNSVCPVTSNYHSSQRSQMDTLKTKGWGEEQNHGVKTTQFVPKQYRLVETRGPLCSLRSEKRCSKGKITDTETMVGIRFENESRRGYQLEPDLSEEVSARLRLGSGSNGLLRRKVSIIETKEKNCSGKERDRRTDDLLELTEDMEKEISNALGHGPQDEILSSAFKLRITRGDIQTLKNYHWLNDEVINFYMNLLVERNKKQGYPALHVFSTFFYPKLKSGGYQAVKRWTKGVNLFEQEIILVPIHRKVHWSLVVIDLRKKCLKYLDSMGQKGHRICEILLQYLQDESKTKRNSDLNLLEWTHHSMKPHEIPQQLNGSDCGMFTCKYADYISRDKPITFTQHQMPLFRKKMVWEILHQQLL
In words: Inhibition of human SENP2 using AMC-tagged SUMO1 as substrate incubated for 10 mins by fluorescence based analysis.

As to `COC1=C(N)C(=O)c2nc(-c3nc(C(=O)O)c(C)c(-c4ccc(OC)c(OC)c4O)c3N)ccc2C1=O` [CHEBI:9287], the values for the IC50 in assay [1], in assay [2] and in assay [3] were 0.52 µM, 5.2 µM and 6.9 µM, respectively.
